The target in one assay is T1, human TLR9 (Homo sapiens, UniProt Q9NR96).
T1 construct: host or cells: HEK-Blue cells
T1 sequence (Q9NR96 26-1032): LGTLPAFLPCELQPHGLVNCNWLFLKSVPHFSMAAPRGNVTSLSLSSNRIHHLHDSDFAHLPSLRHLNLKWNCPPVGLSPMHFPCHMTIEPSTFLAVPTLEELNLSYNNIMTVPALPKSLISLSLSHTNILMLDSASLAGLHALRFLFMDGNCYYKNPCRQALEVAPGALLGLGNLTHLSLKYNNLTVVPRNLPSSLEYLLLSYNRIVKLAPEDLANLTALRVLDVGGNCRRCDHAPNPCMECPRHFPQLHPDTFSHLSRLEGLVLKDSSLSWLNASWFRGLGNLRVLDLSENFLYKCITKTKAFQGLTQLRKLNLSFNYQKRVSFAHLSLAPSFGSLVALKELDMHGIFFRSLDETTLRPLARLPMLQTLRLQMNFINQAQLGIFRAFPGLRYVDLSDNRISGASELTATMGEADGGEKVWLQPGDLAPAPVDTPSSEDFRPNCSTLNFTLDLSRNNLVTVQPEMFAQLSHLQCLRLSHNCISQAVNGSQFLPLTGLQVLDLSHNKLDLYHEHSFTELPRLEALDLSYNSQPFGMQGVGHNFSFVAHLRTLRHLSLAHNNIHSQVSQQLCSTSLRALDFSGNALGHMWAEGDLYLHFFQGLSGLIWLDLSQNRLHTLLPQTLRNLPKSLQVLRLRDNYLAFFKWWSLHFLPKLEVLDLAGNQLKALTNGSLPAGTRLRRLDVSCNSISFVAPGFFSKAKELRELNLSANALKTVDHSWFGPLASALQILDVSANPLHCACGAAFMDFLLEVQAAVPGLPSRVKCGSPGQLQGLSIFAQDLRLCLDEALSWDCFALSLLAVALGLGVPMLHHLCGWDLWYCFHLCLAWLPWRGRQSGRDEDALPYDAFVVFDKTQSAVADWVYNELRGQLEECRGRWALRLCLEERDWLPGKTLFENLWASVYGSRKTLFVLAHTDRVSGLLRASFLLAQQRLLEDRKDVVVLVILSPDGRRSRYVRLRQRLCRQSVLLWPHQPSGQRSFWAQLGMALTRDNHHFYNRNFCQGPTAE
Put plainly: TLR9 inhibition reporter assay (HEK-Blue SEAP). The conditions noted are these: HEK-Blue cells overexpressing human TLR9, ODN2006 5 nM, 22 hour incubation. Type of assay: cell-based. The procedure, abridged:
(§1)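 Compound treatment: 30 min, RT, 0.05 nM–50 μM final. Agonist: TLR7 gardiquimod 7.5 μM; TLR8 R848 15.9 μM; TLR9 ODN2006 5 nM. Incubation 22 h, 37 °C, 5% CO2. Readout SEAP, HEK-Blue Detection.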

The target of a further assay is T2, human TLR8 (Homo sapiens, UniProt Q9NR97).
T2 construct: host or cells: HEK-Blue cells
T2 sequence (Q9NR97 27-1041): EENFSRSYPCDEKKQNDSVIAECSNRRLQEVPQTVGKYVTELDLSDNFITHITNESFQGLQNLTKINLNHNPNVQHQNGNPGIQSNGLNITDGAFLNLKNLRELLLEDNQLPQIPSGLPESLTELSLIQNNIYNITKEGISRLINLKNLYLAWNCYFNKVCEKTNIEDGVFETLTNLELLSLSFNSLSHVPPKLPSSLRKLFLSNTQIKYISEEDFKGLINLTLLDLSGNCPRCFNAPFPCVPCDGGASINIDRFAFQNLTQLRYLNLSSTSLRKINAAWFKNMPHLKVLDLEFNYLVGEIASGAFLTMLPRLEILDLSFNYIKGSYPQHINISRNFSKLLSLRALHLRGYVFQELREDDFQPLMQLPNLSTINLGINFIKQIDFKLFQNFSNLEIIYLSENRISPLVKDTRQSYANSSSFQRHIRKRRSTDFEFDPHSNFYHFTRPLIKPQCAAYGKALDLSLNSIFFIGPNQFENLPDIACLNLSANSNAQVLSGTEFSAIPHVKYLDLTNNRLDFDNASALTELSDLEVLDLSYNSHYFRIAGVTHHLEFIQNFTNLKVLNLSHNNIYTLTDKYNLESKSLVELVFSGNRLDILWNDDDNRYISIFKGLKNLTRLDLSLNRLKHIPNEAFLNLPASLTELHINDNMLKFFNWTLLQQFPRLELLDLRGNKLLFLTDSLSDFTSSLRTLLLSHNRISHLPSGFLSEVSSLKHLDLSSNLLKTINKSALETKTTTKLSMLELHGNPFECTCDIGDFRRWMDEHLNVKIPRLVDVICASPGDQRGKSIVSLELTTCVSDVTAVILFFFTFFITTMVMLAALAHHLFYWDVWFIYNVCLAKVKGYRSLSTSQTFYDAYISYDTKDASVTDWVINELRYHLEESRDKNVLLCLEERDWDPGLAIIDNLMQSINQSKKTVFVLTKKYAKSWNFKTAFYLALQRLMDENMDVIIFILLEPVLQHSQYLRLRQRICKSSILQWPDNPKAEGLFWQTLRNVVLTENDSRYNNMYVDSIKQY
Put plainly: TLR8 inhibition reporter assay (HEK-Blue SEAP). The conditions noted are these: HEK-Blue cells overexpressing human TLR8, R848 15.9 μM, 22 hour incubation. The format is cell-based. In outline: as §1
(In general: A reporter such as luciferase makes a cellular process visible.)

Counter-ions that a name gives are not always drawn.

With `Cc1cc2c(cc1-c1cc(C)c3ncnn3c1)[nH]c(=O)n2C1CCNCC1` [1 EA, 6-methyl-5-(8-methyl-[1,2,4]triazolo[1,5-a]pyridin-6-yl)-1-(piperidin-4-yl)-1,3-dihydro-2H-benzo[d]imidazol-2-one], the IC50 (in general, the concentration that gives 50% inhibition) is 5450 nM on human TLR9 and 439 nM against human TLR8.
`Cc1cc2c(cc1-c1cc(C)c3ncnn3c1)[nH]c(=O)n2[C@H]1CC[C@H](N)CC1` [1 EF, 1-((1r,4r)-4-aminocyclohexyl)-6-methyl-5-(8-methyl-[1,2,4]triazolo[1,5-a]pyridin-6-yl)-1,3-dihydro-2H-benzo[d]imidazol-2-one]: the results for the IC50 against human TLR9 and against human TLR8 were 2310 nM and 33.2 nM, respectively.
`COc1cc(-c2cc3[nH]c(=O)n(C4CCNCC4)c3cc2C)cn2ncnc12` [1 E, 5-(8-methoxy-[1,2,4]triazolo[1,5-a]pyridin-6-yl)-6-methyl-1-(piperidin-4-yl)-1H-benzo[d]imidazol-2(3H)-one, TFA]: the results for the IC50 on human TLR9 and on human TLR8 were 2640 nM and 225 nM, respectively.
Turning to `Cc1c(-c2cc3[nH]c(=O)n(C4CCC(N5CCCC(F)C5)CC4)c3cc2C(C)C)cn2ncnc2c1C` (stereo not shown) [Example 273, 5-(7,8-dimethyl-[1,2,4]triazolo[1,5-a]pyridin-6-yl)-1-(4-(3-fluoropiperidin-1-yl)cyclohexyl)-6-isopropyl-1,3-dihydro-2H-benzo[d]imidazol-2-one], the results for the IC50 against human TLR9 and against human TLR8 were 13500 nM and 0.87 nM, respectively.
As to `COc1cc(-c2cc3[nH]c(=O)n(C4CCC(N5CCC(OC)C5)CC4)c3cc2C(C)C)cn2ncnc12` (stereo not shown) [Example 284, 6-isopropyl-5-(8-methoxy-[1,2,4]triazolo[1,5-a]pyridin-6-yl)-1-(4-(3-methoxypyrrolidin-1-yl)cyclohexyl)-1,3-dihydro-2H-benzo[d]imidazol-2-one], the IC50 against human TLR9 amounted to 3560 nM; at human TLR8 it was 0.18 nM.
On to `Cc1c(-c2cc3[nH]c(=O)n(C4CCC(N5CCC(F)(F)CC5)CC4)c3cc2C(C)C)cn2ncnc2c1C` (single isomer, unassigned) [Example 275, 1-(4-(4,4-difluoropiperidin-1-yl)cyclohexyl)-5-(7,8-dimethyl-[1,2,4]triazolo[1,5-a]pyridin-6-yl)-6-isopropyl-1,3-dihydro-2H-benzo[d]imidazol-2-one], for which the IC50 on human TLR9 amounted to 19900 nM; against human TLR8, 0.81 nM.
As for `COC[C@@H]1CCN(C2CCC(n3c(=O)[nH]c4cc(-c5cc(OC)c6ncnn6c5)c(C(C)C)cc43)CC2)C1` (single isomer, unassigned) [Example 291], the figures for the IC50 against human TLR9 and against human TLR8 were 12300 nM and 1.86 nM, respectively.
Regarding `COC[C@@H]1CCN(C2CCC(n3c(=O)[nH]c4cc(-c5cc(OC)c6ncnn6c5)c(C(C)C)cc43)CC2)C1` (single isomer, unassigned) [Example 290], the IC50 on human TLR9 was determined as 7100 nM; against human TLR8, 0.53 nM.
Take `Cc1cc2c(cc1-c1cc(C)c3ncnn3c1)[nH]c(=O)n2[C@H]1CC[C@@H](NC2CCOCC2)CC1` [Example 30, 6-methyl-5-(8-methyl-[1,2,4]triazolo[1,5-a]pyridin-6-yl)-1-((1s,4s)-4-((tetrahydro-2H-pyran-4-yl)amino)cyclohexyl)-1,3-dihydro-2H-benzo[d]imidazol-2-one]: the results for the IC50 against human TLR9 and against human TLR8 were 4490 nM and 3.12 nM, respectively.
For `COc1cc(-c2cc3[nH]c(=O)n(C4CCC(N5C6CCC5COC6)CC4)c3cc2C(C)C)cn2ncnc12` (single isomer, unassigned) [Example 253, 1-(4-(3-oxa-8-azabicyclo[3.2.1]octan-8-yl)cyclohexyl)-6-isopropyl-5-(8-methoxy-[1,2,4]triazolo[1,5-a]pyridin-6-yl)-1,3-dihydro-2H-benzo[d]imidazol-2-one], the IC50 against human TLR9 stood at 11100 nM; at human TLR8 it was 4.33 nM.
As for `COc1cc(-c2cc3[nH]c(=O)n(C4CCC(N(C)CCC(F)(F)F)CC4)c3cc2C(C)C)cn2ncnc12` (single isomer, unassigned) [Example 248, 6-isopropyl-5-(8-methoxy-[1,2,4]triazolo[1,5-a]pyridin-6-yl)-1-(4-(methyl(3,3,3-trifluoropropyl)amino)cyclohexyl)-1,3-dihydro-2H-benzo[d]imidazol-2-one], the values for the IC50 on human TLR9 and at human TLR8 were 9770 nM and 0.17 nM, respectively.
For the compound `COc1cc(-c2cc3[nH]c(=O)n(C4CCC(N5CCC(OC)C5)CC4)c3cc2C(C)C)cn2ncnc12` (stereo not shown) [Example 285, 6-isopropyl-5-(8-methoxy-[1,2,4]triazolo[1,5-a]pyridin-6-yl)-1-(4-(3-methoxypyrrolidin-1-yl)cyclohexyl)-1,3-dihydro-2H-benzo[d]imidazol-2-one], the IC50 at human TLR9 stood at 8310 nM; against human TLR8, 0.13 nM.
With `Cc1c(-c2cc3[nH]c(=O)n(C4CCC(N5CC(F)C5)CC4)c3cc2C(C)C)cn2ncnc2c1C` (stereo not shown) [Example 280, 5-(7,8-dimethyl-[1,2,4]triazolo[1,5-a]pyridin-6-yl)-1-(4-(3-fluoroazetidin-1-yl)cyclohexyl)-6-isopropyl-1,3-dihydro-2H-benzo[d]imidazol-2-one], the IC50 at human TLR9 is 20600 nM; on human TLR8 it was 2.75 nM.
With `COc1c(C)c(-c2cc3[nH]c(=O)n(C4CCC(NCC5(S(C)(=O)=O)CC5)CC4)c3cc2C(C)C)cn2ncnc12` (single isomer, unassigned) [Example 259], the IC50 on human TLR9 amounted to 40500 nM; against human TLR8, 1.85 nM.
In the case of `COCCNC1CCC(n2c(=O)[nH]c3cc(-c4cn5ncnc5c(OC)c4C)c(C(C)C)cc32)CC1` (stereo not shown) [Example 257], the results for the IC50 at human TLR9 and on human TLR8 were 23300 nM and 1.38 nM, respectively.
Consider `COc1cc(-c2cc3[nH]c(=O)n(C4CCC(N5CCC(S(C)(=O)=O)C5)CC4)c3cc2C(C)C)cn2ncnc12` (single isomer, unassigned) [Example 288, 6-isopropyl-5-(8-methoxy-[1,2,4]triazolo[1,5-a]pyridin-6-yl)-1-(4-(3-(methylsulfonyl)pyrrolidin-1-yl)cyclohexyl)-1,3-dihydro-2H-benzo[d]imidazol-2-one], for which the IC50 against human TLR9 was found to be 47800 nM; on human TLR8, 0.75 nM.
Turning to `COc1c(C)c(-c2cc3[nH]c(=O)n(C4CCC(N5CC6(COC6)C5)CC4)c3cc2C(C)C)cn2ncnc12` (single isomer, unassigned) [Example 270, 1-(4-(2-oxa-6-azaspiro[3.3]heptan-6-yl)cyclohexyl)-6-isopropyl-5-(8-methoxy-7-methyl-[1,2,4]triazolo[1,5-a]pyridin-6-yl)-1,3-dihydro-2H-benzo[d]imidazol-2-one], the figures for the IC50 against human TLR9 and at human TLR8 were 11600 nM and 2.83 nM, respectively.

The record behind these values is patent US12187723B2 (BRISTOL-MYERS SQUIBB COMPANY, priority 2019, dated 2025).
